Test results taken from paper PMC1382195 (The Journal of General Physiology, 2005).

Key:
[1] = target: T1, cystic fibrosis transmembrane conductance regulator (ΔR-CFTR) (Homo sapiens, UniProt P13569, DEL634-836); assay: excised inside-out patch-clamp; type: biochemical
[2] = target: T1, cystic fibrosis transmembrane conductance regulator (ΔR-CFTR); assay: excised inside-out patch-clamp, single-channel Po versus [ATP]; type: biochemical

T1 sequence (P13569 1-633, stated change not applied): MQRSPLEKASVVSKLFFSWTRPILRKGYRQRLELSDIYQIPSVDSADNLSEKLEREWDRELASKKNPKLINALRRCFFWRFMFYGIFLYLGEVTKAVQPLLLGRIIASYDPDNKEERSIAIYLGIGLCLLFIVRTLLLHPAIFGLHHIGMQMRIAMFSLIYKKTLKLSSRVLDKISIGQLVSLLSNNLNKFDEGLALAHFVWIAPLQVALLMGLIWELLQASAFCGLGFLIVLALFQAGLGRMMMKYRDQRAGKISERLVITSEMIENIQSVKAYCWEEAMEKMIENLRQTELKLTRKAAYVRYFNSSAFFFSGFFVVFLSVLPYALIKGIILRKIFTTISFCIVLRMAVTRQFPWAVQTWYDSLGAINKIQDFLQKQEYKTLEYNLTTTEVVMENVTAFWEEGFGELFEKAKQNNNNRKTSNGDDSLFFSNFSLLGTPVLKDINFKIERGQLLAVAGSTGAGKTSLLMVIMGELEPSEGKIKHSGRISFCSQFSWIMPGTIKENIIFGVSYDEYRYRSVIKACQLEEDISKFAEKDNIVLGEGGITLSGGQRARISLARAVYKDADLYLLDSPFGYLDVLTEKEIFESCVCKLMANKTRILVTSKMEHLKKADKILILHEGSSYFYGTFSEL
T1 sequence (P13569 837-1480, stated change not applied): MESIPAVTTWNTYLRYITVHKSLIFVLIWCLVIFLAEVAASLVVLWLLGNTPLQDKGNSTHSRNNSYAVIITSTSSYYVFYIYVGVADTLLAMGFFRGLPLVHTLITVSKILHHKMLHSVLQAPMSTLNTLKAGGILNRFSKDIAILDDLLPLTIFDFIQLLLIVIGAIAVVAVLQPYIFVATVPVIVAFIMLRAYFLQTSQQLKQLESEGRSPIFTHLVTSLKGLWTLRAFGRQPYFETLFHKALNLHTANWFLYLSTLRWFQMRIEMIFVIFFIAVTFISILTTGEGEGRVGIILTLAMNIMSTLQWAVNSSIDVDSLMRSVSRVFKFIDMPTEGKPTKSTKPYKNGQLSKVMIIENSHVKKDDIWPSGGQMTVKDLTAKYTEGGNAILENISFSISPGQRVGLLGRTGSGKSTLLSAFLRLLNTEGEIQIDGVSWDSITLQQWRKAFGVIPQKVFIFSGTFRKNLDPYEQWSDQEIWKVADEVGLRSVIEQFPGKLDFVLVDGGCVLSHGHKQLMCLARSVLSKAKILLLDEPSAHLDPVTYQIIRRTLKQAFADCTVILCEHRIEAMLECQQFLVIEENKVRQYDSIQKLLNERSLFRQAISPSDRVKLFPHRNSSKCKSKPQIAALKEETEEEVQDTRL

Ki [1] | EC50 [2] | Compound
26.3 ± 5.1 µM |  | Nc1ncnc2c1ncn2[C@@H]1O[C@H](COP(=O)(O)OP(=O)(O)O)[C@@H](O)[C@H]1O [ADP]
 | 89 ± 25 µM | Nc1ncnc2c1ncn2[C@@H]1O[C@H](COP(=O)(O)OP(=O)(O)OP(=O)(O)O)[C@@H](O)[C@H]1O [ATP]
